Measurements as given in patent publication US12427179B2, “Compositions and methods for diagnosis and treatment of neurodegenerative diseases” (EPITRACKER, INC., priority 2019, dated 2025).

Experiments:
[1] = test system: HDF3CGF: Dermal fibroblasts; test: BioMAP HDF3CGF system; assay type: cell-based, human; details: at the compound's active concentration
Source text: (§1) The Diversity PLUS panel allows test agent characterization in an unbiased way across a broad set of systems modeling various human disease states. These systems are designed to model complex human tissue and disease biology of the vasculature, skin, lung, and inflammatory tissues. Quantitative measurements of 148 biomarker activities across this broad panel, along with comparative analysis of biological activities from known bioactive agents, were used to predict and compare the efficacy and function of each selected compound at selected concentrations (6.7 and/or 20 μM).
(§2) BioMAP systems are constructed with one or more primary cell types from healthy human donors, with stimuli (such as cytokines or growth factors) added to capture relevant signaling networks that naturally occur in human tissue or pathological conditions. Vascular biology is modeled in both a Th1 (3C system) and a Th2 (4H system) inflammatory environment, as well as in a Th1 inflammatory state specific to arterial smooth muscle cells (CASM3C system). Additional systems recapitulate aspects of the systemic immune response including monocyte-driven Th1 inflammation (LPS system) or T cell stimulation (SAg system), chronic Th1 inflammation driven by macrophage activation (lMphg system) and the T cell-dependent activation of B cells that occurs in germinal centers (BT system). The BE3C system (Th1) and the BF4T system (Th2) represent airway inflammation of the lung, while the MyoF system models myofibroblast-lung tissue remodeling. Lastly, skin biology is addressed in the KF3CT system modeling Th1 cutaneous inflammation and the HDF3CGF system modeling wound healing.
(§3) Each test agent generates a signature BioMAP profile that is created from the changes in protein biomarker readouts within individual system environments. Biomarker readouts (7-17 per system) are selected for therapeutic and biological relevance, are predictive for disease outcomes or specific drug effects and are validated using agents with known mechanism of action (MoA). Each readout is measured quantitatively by immune-based methods that detect protein (e.g., ELISA) or functional assays that measure proliferation and viability. BioMAP readouts are diverse and include cell surface receptors, cytokines, chemokines, matrix molecules and enzymes. In total, the Diversity PLUS panel contains 148 biomarker readouts that capture biological changes that occur within the physiological context of the particular BioMAP system. Specific BioMAP activities have been correlated to in vivo biology, and multiparameter BioMAP profiles have been used to distinguish compounds based on MoA and target selectivity across diverse physiological systems.
(§4) Activated BioMAP systems were incubated with each compound for 24 to 72 hours. Protein-based biomarkers from activated cell systems were measured and compared with non-treated control systems.

[2] = test system: SAg: Venular endothelial cells, peripheral blood mononuclear cells (TCR ligands); test: BioMAP SAg system; assay type: cell-based, human
Method: (§5) Anti-inflammatory phenotypic profiling was conducted across 12 human primary cell-based systems as part of DiscoverX's BioMAP Diversity Plus program. These systems are designed to model complex human tissue and disease biology of the vasculature, skin, lung, and inflammatory tissues. Quantitative measurements of biomarker activities across this broad panel were used to assess each biochemical's anti-inflammatory activity at four concentrations ([…] and 2.2, 6.7 and 20 μM). […] Protein-based biomarkers from activated cell systems were measured and compared with controls. Biomarker activities were annotated when 2 or more consecutive concentrations change in the same directions relative to vehicle controls, were outside of the significance envelope and had at least one concentration with an effect size>20% (log 10 ratio)>0.1.
In this system, human primary peripheral blood mononuclear cells and human umbilical vein endothelial cells were stimulated with T-cell receptor ligands and incubated with the test agent, drug control, or vehicle control for 24 hours. A negative, non-stimulated system was also included. […] This antiproliferative activity was lost at higher concentrations (20 μM). In this system, T cell proliferation is considered a critical event driving an inflammatory response.
as §1, with “μM). […]” for “μM).”
as §3, with “Specific BioMAP activities have been correlated to in vivo biology, and multiparameter BioMAP profiles have been used to distinguish compounds based on MoA and target selectivity across diverse physiological systems.” left out

[3] = test system: BT: Peripheral blood mononuclear cells, B cells (α-IgM, TCR ligands); test: BioMAP BT system; assay type: cell-based, human; details: BT system; at the compound's active concentration
Method: as §5
In the first system, human primary peripheral blood mononuclear cells and venular endothelial cells were stimulated with lipopolysaccharide (LPS) and incubated with the test agent, drug control, or vehicle control for 24 hours. In the second system, peripheral blood mononuclear cells and B cells were stimulated with α-IgM and T cell receptor ligands and incubated with the test agent, drug control, or vehicle control for 24 hours. In both systems, a negative, non-stimulated system was also included.
as §1, §2
as §3, with “Specific BioMAP activities have been correlated to in vivo biology, and multiparameter BioMAP profiles have been used to distinguish compounds based on MoA and target selectivity across diverse physiological systems.” left out

[4] = test system: MyoF: Lung fibroblasts (TGFβ, TNFα); test: BioMAP MyoF system; assay type: cell-based, human; details: at the compound's active concentration
Source text: as §1, §2
as §3, with “Specific BioMAP activities have been correlated to in vivo biology, and multiparameter BioMAP profiles have been used to distinguish compounds based on MoA and target selectivity across diverse physiological systems.” left out
as §4

[5] = test system: human primary cell-based systems; test: BioMAP Diversity PLUS panel, phenotypic profiling; details: tested at 6.7 and/or 20 μM; 24 to 72 hours
Method: as §5, with “controls.” for “controls. Biomarker activities were annotated when 2 or more consecutive concentrations change in the same directions relative to vehicle controls, were outside of the significance envelope and had at least one concentration with an effect size>20% (log 10 ratio)>0.1.”
as §1, §2
as §3, with “system.” for “system. Specific BioMAP activities have been correlated to in vivo biology, and multiparameter BioMAP profiles have been used to distinguish compounds based on MoA and target selectivity across diverse physiological systems.”
as §4

[6] = test system: BE3C: Bronchial epithelial cells (IL-1β, IFNγ, TNFα); test: BioMAP BE3C system; assay type: cell-based, human; details: at the compound's active concentration
Source text: The Diversity PLUS panel allows test agent characterization in an unbiased way across a broad set of systems modeling various human disease states. These systems are designed to model complex human tissue and disease biology of the vasculature, skin, lung, and inflammatory tissues.
as §2
(§6) Each test agent generates a signature BioMAP profile that is created from the changes in protein biomarker readouts within individual system environments. Biomarker readouts (7-17 per system) are selected for therapeutic and biological relevance, are predictive for disease outcomes or specific drug effects and are validated using agents with known mechanism of action (MoA). Each readout is measured quantitatively by immune-based methods that detect protein (e.g., ELISA) or functional assays that measure proliferation and viability. BioMAP readouts are diverse and include cell surface receptors, cytokines, chemokines, matrix molecules and enzymes.
as §4

[7] = test system: KF3CT: Keratinocytes, dermal fibroblasts; test: BioMAP KF3CT system; assay type: cell-based, human; details: at the compound's active concentration
Source text: as §1, with “μM). […]” for “μM).”
as §6, with “enzymes. […]” for “enzymes.”

[8] = white powder; cited from earlier work

Nc1ncnc2c1ncn2[C@@H]1O[C@H](CSCC[C@H](N)C(=O)O)[C@@H](O)[C@H]1O [S-adenosylhomocysteine (SAH), S-adenosylhomocysteine]
CXCL10, log10 reduction vs nontreated controls [1]: −0.19 log10 | CXCL11, log10 reduction vs nontreated controls [1]: −0.25 log10 | Collagen III, log10 reduction vs nontreated controls [1]: −0.21 log10 | Fibroblast proliferation, log10 reduction vs nontreated controls [1]: −1.10 log10 | M-CSF, log10 reduction vs nontreated controls [1]: −0.19 log10 | MCP-1, log10 reduction vs nontreated controls [1]: −0.14 log10 | TIMP-1, log10 reduction vs nontreated controls [1]: −0.14 log10 | VCAM-1, log10 reduction vs nontreated controls [1]: −0.17 log10 | T cell proliferation, log10 reduction vs nontreated controls ([2]; SAg system, at the compound's active concentration): −0.21 log10 | Secreted IgG, log10 reduction vs nontreated controls [3]: −0.29 log10 | Alpha-SM actin, log10 reduction vs nontreated controls [4]: −0.18 log10 | Collagen I, log10 reduction vs nontreated controls [4]: −0.15 log10 | Collagen III, log10 reduction vs nontreated controls [4]: −0.27 log10 | VCAM-1, log10 reduction vs nontreated controls [4]: −0.12 log10 | Active concentrations [5]: 20 µM | CXCL11, log10 reduction vs nontreated controls [6]: −0.13 log10 | HLA-DR, log10 reduction vs nontreated controls [6]: −0.13 log10 | IL-8, log10 reduction vs nontreated controls [6]: −0.13 log10 | MMP-9, log10 reduction vs nontreated controls [6]: −0.24 log10 | MMP-9, log10 reduction vs nontreated controls [7]: −0.10 log10 | PAI-1, log10 reduction vs nontreated controls [7]: −0.28 log10

N[C@@H](CC(O)C(=O)O)C(=O)O (some centres unmarked) [4-hydroxyglutamate]
T cell antiproliferative activity ([2]; higher concentrations (20 μM), 24 hours): lost | Stability of the pure powder [8]: stable at room temperature
